ChEMBL document CHEMBL5500389, “Discovery of the Selective and Orally Available Galectin-1 Inhibitor GB1908 as a Potential Treatment for Lung Cancer” (J Med Chem, 2024)
pKd: −log10 of the molar value.

Tests used:
[1] = Efflux ratio of apparent permeability across apical to basal side over basal to apical side in human Caco-2 cells at 10 uM incubated for 90 mins by LC-MS/MS analysis
[2] = Apparent permeability across apical to basal side in human Caco-2 cells at 10 uM incubated for 90 mins by LC-MS/MS analysis
[3] = target: Galectin-1 (Mus musculus, UniProt P16045); assay: Binding affinity to mouse galectin-1 assessed as dissociation constant by fluorescein probe based fluorescence polarization assay
[4] = physchem; conditions: octanol/potassium phosphate buffer, pH 7.4
[5] = Apparent permeability across basal to apical side in human Caco-2 cells at 10 uM incubated for 90 mins by LC-MS/MS analysis
[6] = Stability in mouse hepatocytes assessed as hepatic intrinsic clearance at 2 uM measured per million cells for 15 to 120 mins by LC-MS/MS analysis; format: ADME, cell-based, Hepatocyte; conditions: time 15-120 min, read-out: CLH
[7] = target: Galectin-1 (Homo sapiens, UniProt P09382); assay: Binding affinity to human galectin-1 assessed as dissociation constant by fluorescein probe based fluorescence polarization assay
[8] = Stability in human hepatocytes assessed as hepatic intrinsic clearance at 2 uM measured per million cells for 15 to 120 mins by LC-MS/MS analysis; format: ADME, cell-based, Hepatocyte; conditions: time 15-120 min, read-out: CLH
[9] = Unbound fraction in human plasma at 1 uM incubated for 5 hrs by equilibrium dialysis method; format: ADME, cell-free

Sequence of Galectin-1 (Mus musculus, UniProt P16045) (P16045 whole entry): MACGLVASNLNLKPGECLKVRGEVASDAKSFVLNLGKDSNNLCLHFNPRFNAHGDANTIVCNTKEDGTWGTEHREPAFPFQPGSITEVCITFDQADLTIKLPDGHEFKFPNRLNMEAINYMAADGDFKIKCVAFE
Sequence of Galectin-1 (Homo sapiens, UniProt P09382) (P09382 whole entry): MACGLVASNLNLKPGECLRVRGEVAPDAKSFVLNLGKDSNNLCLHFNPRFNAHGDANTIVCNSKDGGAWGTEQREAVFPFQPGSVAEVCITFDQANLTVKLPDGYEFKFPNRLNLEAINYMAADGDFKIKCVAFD

Row | SMILES | efflux ratio at 1.5 h, 10 µM [1] | Papp A→B at 1.5 h, 10 µM [2] | pKd [3] | logD at 1 h [4] | Papp B→A at 1.5 h, 10 µM [5] | hepatocyte CLint at 2 µM [6] | pKd [7] | hepatocyte CLint at 2 µM [8] | fraction unbound at 5 h, 1 µM [9]
1 | OC[C@H]1O[C@H](Sc2cc(Cl)c(F)c(Cl)c2)[C@H](O)[C@@H](n2cc(-c3cscn3)nn2)[C@H]1O | 3.4 | 8.8 ×10⁻⁶ cm/s | – | – | – | – | – | – | –
2 | CO[C@@H]1[C@@H](n2cc(-c3nccs3)nn2)[C@@H](O)[C@@H](CO)O[C@@H]1Sc1cc(Cl)c(F)c(Cl)c1 | 1.4 | 20 ×10⁻⁶ cm/s | 6.80 | 3.7 | 28 ×10⁻⁶ cm/s | < 1.5 µL/min/1e6 cells | 6.84 | 4.4 µL/min/1e6 cells | –
3 | CO[C@@H]1[C@@H](n2cc(-c3csc(N)n3)nn2)[C@@H](O)[C@@H](CO)O[C@@H]1Sc1ccc(Cl)c(Cl)c1 | 10 | 3.8 ×10⁻⁶ cm/s | 7.00 | 2.9 | 38 ×10⁻⁶ cm/s | < 1.5 µL/min/1e6 cells | 6.95 | < 1.5 µL/min/1e6 cells | 0.032
4 | CO[C@@H]1[C@@H](n2cc(-c3csc(O)n3)nn2)[C@@H](O)[C@@H](CO)O[C@@H]1Sc1cc(Cl)c(F)c(Cl)c1 | 63 | 0.9 ×10⁻⁶ cm/s | 7.37 | 3.3 | 57 ×10⁻⁶ cm/s | < 1.5 µL/min/1e6 cells | 7.47 | 2.5 µL/min/1e6 cells | –
5 | COc1nc(-c2cn([C@@H]3[C@@H](O)[C@@H](Sc4cc(Cl)c(F)c(Cl)c4)O[C@H](CO)[C@@H]3O)nn2)cs1 | 5 | 12 ×10⁻⁶ cm/s | – | – | 61 ×10⁻⁶ cm/s | – | 5.80 | – | –
6 | OC[C@H]1O[C@H](Sc2ccc(Cl)c(Cl)c2)[C@H](O)[C@@H](n2cc(-c3csc(O)n3)nn2)[C@H]1O | > 23 | < 1.5 ×10⁻⁶ cm/s | – | – | 35 ×10⁻⁶ cm/s | – | 6.47 | – | –
7 | CO[C@@H]1[C@@H](n2cc(-c3csc(N)n3)nn2)[C@@H](O)[C@@H](CO)O[C@@H]1Sc1cc(Cl)c(F)c(Cl)c1 | 11 | 3.5 ×10⁻⁶ cm/s | 7.04 | 3 | 39 ×10⁻⁶ cm/s | 1.6 µL/min/1e6 cells | 7.01 | 4.6 µL/min/1e6 cells | –
